This is an account of results in patent US12492186B2, “Bicyclic heterocyclic compounds useful as IRAK4 inhibitors” (BRISTOL-MYERS SQUIBB COMPANY, priority 2019, dated 2025).

The EC50 is the concentration at which the effect is half-maximal. Read a low EC50 as a more potent agent. As usually defined, the IC50 is the point on the concentration scale where inhibition reaches its midpoint.

One test concerns Human whole blood. Nature of the test: IRAK4 Whole Blood Assay (IL-6 levels after stimulation with TLR2 agonist lipoteichoic acid). The test is classed as cell-based. The following applies: 10 μg/mL lipoteichoic acid, 5 hours. On the procedure: Human whole blood containing the anti-coagulant ACD-A was plated in 384-well plate (25 μL/well) and incubated with compounds for 60 minutes at 37° C. in a 5% CO2 incubator. The blood was stimulated with a TLR2 agonist, 10 μg/mL final concentration of lipoteichoic acid (Invivogen, San Diego, CA) in 25 μL RPMI (Gibco) for 5 hours in a 5% CO2 incubator. At the end of the incubation, plates were centrifuged at 2300 rpm for 5 minutes. Supernatants were harvested and analyzed for IL-6 levels by Flow Cytometry beads assay (BD Biosciences, San Jose, CA).

A further test addresses IRAK4 (Homo sapiens (Human), UniProt Q9NWZ3). Nature of the test: IRAK4 Inhibition Assay. The note with it: ATP 500 μM; IRAK4 0.6 nM; 60 min room temperature; Caliper LABCHIP 3000. The class given is biochemical.

IRAK4, sequence (Q9NWZ3 whole entry, species assumed): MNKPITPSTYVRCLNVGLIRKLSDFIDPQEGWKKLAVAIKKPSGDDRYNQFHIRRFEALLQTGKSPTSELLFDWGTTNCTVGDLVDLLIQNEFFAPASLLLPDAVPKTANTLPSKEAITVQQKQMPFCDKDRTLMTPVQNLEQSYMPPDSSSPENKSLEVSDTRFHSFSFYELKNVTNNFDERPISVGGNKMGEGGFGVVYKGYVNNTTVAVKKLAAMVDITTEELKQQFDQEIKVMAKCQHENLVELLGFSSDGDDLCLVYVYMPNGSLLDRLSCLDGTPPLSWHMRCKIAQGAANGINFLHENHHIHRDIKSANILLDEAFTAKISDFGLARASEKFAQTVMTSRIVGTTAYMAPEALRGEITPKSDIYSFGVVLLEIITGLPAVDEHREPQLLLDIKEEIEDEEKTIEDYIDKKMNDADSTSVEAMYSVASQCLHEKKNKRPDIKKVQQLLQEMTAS

Turning to `CC(C)Nc1c(C(=O)NC2CCN(Cc3ccncc3)CC2)cnc2ccc(-c3cn[nH]c3)cc12` [Example 78, 4-(isopropylamino)-6-(1H-pyrazol-4-yl)-N-(1-(pyridin-4-ylmethyl)piperidin-4-yl)quinoline-3-carboxamide], in the test on Human whole blood, a half-maximal effect (EC50) was put at 1.36 µM. In addition, the IC50 on IRAK4 worked out at 0.0168 µM.

Take `CC(C)Nc1c(C(=O)N[C@H]2C[C@H](O)C2)cnc2ccc(-c3cn[nH]c3)nc12` [Example 143, N-((1r,3r)-3-hydroxycyclobutyl)-4-(isopropylamino)-6-(1H-pyrazol-4-yl)-1,5-naphthyridine-3-carboxamide]: in the test with Human whole blood, the EC50 was 1.38 µM. Moreover, the half-maximal inhibitory concentration (IC50) on IRAK4 amounted to 0.0072 µM.

As to `CC(C)Nc1c(C(=O)NCCc2ccncc2)cnc2ccc(-c3cn[nH]c3)cc12` [Example 109, 4-(isopropylamino)-6-(1H-pyrazol-4-yl)-N-(2-(pyridin-4-yl)ethyl)quinoline-3-carboxamide], a half-maximal response in the test on Human whole blood (EC50) required 2.37 µM. The IC50 at IRAK4 stood at 0.0044 µM.

In the case of `CC(C)Nc1c(C(=O)NC[C@@H](F)C(C)(C)O)cnc2ccc(-c3cn[nH]c3)cc12` [Example 1, (R)—N-(2-fluoro-3-hydroxy-3-methylbutyl)-4-(isopropylamino)-6-(1H-pyrazol-4-yl) quinoline-3-carboxamide], the EC50 with Human whole blood was 0.501 µM. Also, the IC50 on IRAK4 came out at 0.0026 µM.

Turning to `COC(=O)N[C@H]1CC[C@H](NC(=O)c2cnc3ccc(-c4cn[nH]c4)cc3c2NC(C)C)CC1` [Example 25, methyl ((1r,4r)-4-(4-(isopropylamino)-6-(1H-pyrazol-4-yl)quinoline-3-carboxamido)cyclohexyl)carbamate], a half-maximal effect with Human whole blood (EC50) was put at 1.28 µM. For the same compound, on IRAK4, the IC50 came to 0.0033 µM.

`CC(=O)N1CCC(n2cc(-c3cnc4ccc(-c5cn[nH]c5)cc4c3NC(C)C)nn2)CC1` [Example 135, 1-(4-(4-(4-(isopropylamino)-6-(1H-pyrazol-4-yl)quinolin-3-yl)-1H-1,2,3-triazol-1-yl)piperidin-1-yl)ethan-1-one] returned an EC50 in the test with Human whole blood of 0.603 µM. Further, the IC50 on IRAK4 amounted to 0.0031 µM.

As to `CC(C)Nc1c(C(=O)N[C@H]2CC[C@H](N)CC2)cnc2ccc(-c3cn[nH]c3)cc12` [Example 23, N-((1r,4r)-4-aminocyclohexyl)-4-(isopropylamino)-6-(1H-pyrazol-4-yl)quinoline-3-carboxamide], a half-maximal effect with Human whole blood (EC50) was put at 1.7 µM. Also, at IRAK4, the IC50 turned out to be 0.0072 µM.

Compound `CC(C)Nc1c(C(=O)N[C@H]2CC[C@H](O)CC2)cnc2ccc(-c3cn[nH]c3)cc12` [Example 11, N-((1r,4r)-4-hydroxycyclohexyl)-4-(isopropylamino)-6-(1H-pyrazol-4-yl)quinoline-3-carboxamide] displayed an EC50 in the test with Human whole blood of 1.67 µM. Further, the IC50 at IRAK4 turned out to be 0.0095 µM.

On to `CC(C)Nc1c(C(=O)NCC2CCS(=O)(=O)C2)cnc2ccc(-c3cn[nH]c3)cc12` (stereo not shown) [Example 87, N-((1,1-dioxidotetrahydrothiophen-3-yl)methyl)-4-(isopropylamino)-6-(1H-pyrazol-4-yl)quinoline-3-carboxamide], for which, in the test on Human whole blood, the EC50 came to 0.458 µM. Also, the 50% inhibitory concentration (IC50) at IRAK4 was 0.0068 µM.

Take `CC(C)CCNC(=O)c1cnc2ccc(-c3cn[nH]c3)nc2c1NC(C)C` [Example 139, N-isopentyl-4-(isopropylamino)-6-(1H-pyrazol-4-yl)-1,5-naphthyridine-3-carboxamide]: the EC50 in the test on Human whole blood was 0.272 µM. Also, on IRAK4, the IC50 is 0.0027 µM.

`CC(C)Nc1c(C(=O)NCCN2CCS(=O)(=O)CC2)nnc2ccc(-c3cn[nH]c3)cc12` [Example 160, N-(2-(1,1-dioxidothiomorpholino)ethyl)-4-(isopropylamino)-6-(1H-pyrazol-4-yl)cinnoline-3-carboxamide]: the half-maximal effective concentration (EC50) with Human whole blood worked out at 2.09 µM. Further, the IC50 on IRAK4 is 0.0027 µM.

For `CC(C)Nc1c(C(=O)NCCC2CCS(=O)(=O)CC2)cnc2ccc(-c3cn[nH]c3)cc12` [Example 112, N-(2-(1,1-dioxidotetrahydro-2H-thiopyran-4-yl)ethyl)-4-(isopropylamino)-6-(1H-pyrazol-4-yl) quinoline-3-carboxamide], the 50% effective concentration (EC50) in the test with Human whole blood amounted to 2.73 µM. Besides, the half-inhibitory concentration (IC50) on IRAK4 was determined as 0.0043 µM.

Consider `CC(C)CCNC(=O)c1cnc2ccc(-c3cn[nH]c3)cc2c1NC(C)C` [Example 15, N-isopentyl-4-(isopropylamino)-6-(1H-pyrazol-4-yl)quinoline-3-carboxamide], for which a half-maximal effect in the test with Human whole blood (EC50) was put at 0.675 µM. In addition, the IC50 on IRAK4 came out at 0.0077 µM.

Turning to `CC(C)Nc1c(C(=O)NCCC(C)(C)N)cnc2ccc(-c3cn[nH]c3)nc12` [Example 150, N-(3-amino-3-methylbutyl)-4-(isopropylamino)-6-(1H-pyrazol-4-yl)-1,5-naphthyridine-3-carboxamide], the half-maximal effective concentration (EC50) with Human whole blood turned out to be 0.153 µM. In addition, at IRAK4, the IC50 came out at 0.0054 µM.

With `CC(=O)N1CCC(c2cc(-c3cnc4ccc(-c5cn[nH]c5)cc4c3NC(C)C)on2)CC1` [Example 127, 1-(4-(5-(4-(isopropylamino)-6-(1H-pyrazol-4-yl)quinolin-3-yl)isoxazol-3-yl)piperidin-1-yl)ethan-1-one], in the test on Human whole blood, the response was half-maximal at 1.17 µM (EC50). For the same compound, at IRAK4, the 50% inhibitory concentration (IC50) was 0.0067 µM.

With `CC(O)CCNC(=O)c1cnc2ccc(-c3cn[nH]c3)cc2c1NC(C)C` (stereo not shown) [Example 36, N-(3-hydroxybutyl)-4-(isopropylamino)-6-(1H-pyrazol-4-yl)quinoline-3-carboxamide], in the test with Human whole blood, the response was half-maximal at 0.759 µM (EC50). In addition, the IC50 at IRAK4 amounted to 0.0137 µM.

On to `CCNc1c(C(=O)NC[C@@H](F)C(C)(C)O)cnc2ccc(-c3cn[nH]c3)cc12` [Example 27, (R)-4-(ethylamino)-N-(2-fluoro-3-hydroxy-3-methylbutyl)-6-(1H-pyrazol-4-yl)quinoline-3-carboxamide], for which, in the test with Human whole blood, the EC50 was 2.82 µM. Besides, at IRAK4, the IC50 was found to be 0.0089 µM.

`CC(=O)N[C@H]1CC[C@H](NC(=O)c2cnc3ccc(-c4cncs4)nc3c2NC(C)C)CC1` [Example 156, N-((1r,4r)-4-acetamidocyclohexyl)-4-(isopropylamino)-6-(thiazol-5-yl)-1,5-naphthyridine-3-carboxamide] yielded an EC50 in the test on Human whole blood of 0.662 µM. At IRAK4, the IC50 was 0.0043 µM.

In the case of `CC(C)Nc1c(C(=O)NC2CCN(S(=O)(=O)c3cccnc3)CC2)cnc2ccc(-c3cn[nH]c3)cc12` [Example 84, 4-(isopropylamino)-6-(1H-pyrazol-4-yl)-N-(1-(pyridin-3-ylsulfonyl)piperidin-4-yl)quinoline-3-carboxamide], the midpoint of the response in the test on Human whole blood, the EC50, lay at 1.17 µM. The IC50 at IRAK4 was 0.0171 µM.

On to `CC(C)(O)[C@H](F)CNC(=O)c1cnc2ccc(-c3cn[nH]c3)cc2c1NC1COC1` [Example 34, (R)—N-(2-fluoro-3-hydroxy-3-methylbutyl)-4-(oxetan-3-ylamino)-6-(1H-pyrazol-4-yl)quinoline-3-carboxamide], for which, in the test with Human whole blood, the EC50 was 0.544 µM. The IC50 on IRAK4 came out at 0.0098 µM.

As to `CC(C)Nc1c(C(=O)NCCC2CC2)cnc2ccc(-c3cncs3)nc12` [Example 148, N-(2-cyclopropylethyl)-4-(isopropylamino)-6-(thiazol-5-yl)-1,5-naphthyridine-3-carboxamide], the EC50 in the test on Human whole blood stood at 5.42 µM. Besides, the IC50 on IRAK4 turned out to be 0.0164 µM.

`CC(C)Nc1c(C(=O)NCCC(F)F)cnc2ccc(-c3cn[nH]c3)cc12` [Example 45, N-(3,3-difluoropropyl)-4-(isopropylamino)-6-(1H-pyrazol-4-yl)quinoline-3-carboxamide] displayed an EC50 with Human whole blood of 0.35 µM. Besides, the IC50 on IRAK4 came out at 0.0091 µM.

`CC(C)Nc1c(C(=O)NCCS(C)(=O)=O)cnc2ccc(-c3cn[nH]c3)cc12` [Example 88, 4-(isopropylamino)-N-(2-(methylsulfonyl)ethyl)-6-(1H-pyrazol-4-yl)quinoline-3-carboxamide] showed an EC50 in the test on Human whole blood of 1.52 µM. Also, the IC50 at IRAK4 turned out to be 0.0185 µM.

In the test with Human whole blood, `CC(C)Nc1c(C(=O)NCCC2CCCN2)cnc2ccc(-c3cn[nH]c3)cc12` (stereo not shown) [Example 96, 4-(isopropylamino)-6-(1H-pyrazol-4-yl)-N-(2-(pyrrolidin-2-yl)ethyl)quinoline-3-carboxamide] returned a half-maximal effective concentration (EC50) of 1.28 µM. Moreover, the IC50 on IRAK4 is 0.0114 µM.

`CC(C)Nc1c(C(=O)NCCN2CCS(=O)(=O)CC2)cnc2ccc(-c3cn[nH]c3)cc12` [Example 94, N-(2-(1,1-dioxidothiomorpholino)ethyl)-4-(isopropylamino)-6-(1H-pyrazol-4-yl) quinoline-3-carboxamide] registered an EC50 in the test with Human whole blood of 2.24 µM. The IC50 at IRAK4 was found to be 0.0095 µM.

Compound `CC(C)Nc1c(C(=O)NCc2nnc[nH]2)cnc2ccc(-c3cn[nH]c3)cc12` [Example 22, N-((4H-1,2,4-triazol-3-yl)methyl)-4-(isopropylamino)-6-(1H-pyrazol-4-yl)quinoline-3-carboxamide] displayed an EC50 in the test with Human whole blood of 6.45 µM. Besides, at IRAK4, the IC50 was 0.0075 µM.

In the case of `CC(C)Nc1c(C(=O)NCCc2cccnc2)cnc2ccc(-c3cn[nH]c3)cc12` [Example 98, 4-(isopropylamino)-6-(1H-pyrazol-4-yl)-N-(2-(pyridin-3-yl)ethyl)quinoline-3-carboxamide], in the test on Human whole blood, the response was half-maximal at 0.607 µM (EC50). Besides, the IC50 at IRAK4 was determined as 0.0042 µM.

On to `CC(C)Nc1c(-c2cn(C3CN(CC(F)F)C3)nn2)cnc2ccc(-c3cn[nH]c3)cc12` [Example 134, 3-(1-(1-(2,2-difluoroethyl)azetidin-3-yl)-1H-1,2,3-triazol-4-yl)-N-isopropyl-6-(1H-pyrazol-4-yl)quinolin-4-amine], for which the EC50 in the test with Human whole blood stood at 0.981 µM. Besides, the IC50 on IRAK4 turned out to be 0.0063 µM.

In the case of `CC1(Nc2c(C(=O)NCCc3cccnc3)cnc3ccc(-c4cn[nH]c4)cc23)CC1` [Example 122, 4-((1-methylcyclopropyl)amino)-6-(1H-pyrazol-4-yl)-N-(2-(pyridin-3-yl)ethyl)quinoline-3-carboxamide], in the test on Human whole blood, the EC50 was 1.27 µM. For the same compound, the IC50 at IRAK4 came out at 0.0025 µM.
